# According to ChEMBL document CHEMBL5390250, “Synthesis and biological evaluation of bi-modal BODIPY-conjugated Hoechst applicable for Auger-electron and photodynamic cancer therapy” (Bioorg Med Chem Lett, 2023):
# Calls of active or inactive are those of the source. The rule behind the calls is not given here.
# How the values were obtained:
# [1] = Drug uptake in human HeLa cells assessed as increase in intracellular fraction measured upto 6 hrs; assay type: ADME, cell-based
# [2] = Drug uptake in nucleus of human HeLa cells measured upto 6 hrs; assay type: ADME, subcellular
# [3] = tested on: HeLa; assay: Antiproliferative activity against human HeLa cells assessed as auger electron mediated reduction in cell viability at 18.5 kBq measured after 6 hrs by MTT assay relative to control; assay type: functional
# [4] = Fluorescence property of compound in toluene assessed as quantum yield; assay type: physicochemical
# [5] = tested on: HeLa; assay: Antiproliferative activity against human HeLa cells assessed as auger electron mediated reduction in cell viability measured after 6 hrs by MTT assay; assay type: functional, cell-based; conditions: dose <= 18.5 kBq, tested as the 125I-labelled form
# [6] = Induction of singlet oxygen production in MeOH assessed as singlet oxygen quantum yield; assay type: functional
# [7] = tested on: HeLa; assay: Antiproliferative activity against human HeLa cells assessed as reduction in cell viability measured after 6 hrs by MTT assay; assay type: functional, cell-based
# [8] = tested on: HeLa; assay: Induction of DNA damage in human HeLa cells assessed as increase in gamma H2AX foci in nuclei at 18.5 kBq measured after 2 hrs by immmunofluorescence staining based analysis; assay type: functional, cell-based; conditions: tested as the 125I-labelled form
# [9] = tested on: HeLa; assay: Induction of DNA damage in human HeLa cells assessed as increase in gamma H2AX foci density in nucleus measured after 2 hrs by immmunofluorescence staining based analysis; assay type: functional, cell-based; conditions: dose <= 18.5 kBq, tested as the 125I-labelled form
# [10] = tested on: HeLa; assay: Photocytotoxicity against human HeLa cells assessed as reduction in cell viability preincubated for 24 hrs followed by light irradiation at 525 nm for 6 mins by MTT assay; assay type: functional, cell-based; conditions: for Activity: dose <= 1600.0 nM, time 1446.0 min; for IC50: light or radiation study
# [11] = tested on: HeLa; assay: Photocytotoxicity against human HeLa cells assessed as reduction in cell viability at 1600 nM preincubated for 24 hrs followed by light irradiation at 525 nm for 6 mins by MTT assay relative to control; assay type: functional
# [12] = tested on: HeLa; assay: Photocytotoxicity against human HeLa cells assessed as reduction in cell viability upto 1600 nM measured after 24 hrs under dark condition by MTT assay; assay type: functional, cell-based
# [13] = Fluorescence property of compound in MeOH assessed as quantum yield by spectroscopic analysis; assay type: physicochemical
# [14] = Induction of singlet oxygen production in MeOH assessed as singlet oxygen quantum yield at 410 nm by DPBF based assay; assay type: functional
# [15] = Absorption property of compound in MeOH assessed as maximal wavelength by spectroscopic analysis; assay type: physicochemical
# [16] = Emission property of compound in MeOH assessed as maximal wavelength by spectroscopic analysis; assay type: physicochemical
# [17] = Fluorescence property of compound in MeOH assessed as molar extinction coefficient by spectroscopic analysis; assay type: physicochemical
# [18] = Absorption property of compound in MeOH assessed as maximal wavelength; assay type: physicochemical
# [19] = Emission property of compound in MeOH assessed as maximal wavelength; assay type: physicochemical
# [20] = Fluorescence property of compound in MeOH assessed as molar extinction coefficient; assay type: physicochemical
structure (smiles),measurement,setting,value
CC1=C([125I])C(C)=[N+]2C1=C(c1ccc(C(=O)NCCCCOc3ccc(-c4nc5ccc(-c6nc7ccc(N8CCN(C)CC8)cc7[nH]6)cc5[nH]4)cc3)cc1)c1c(C)c(I)c(C)n1[B-]2(F)F,Drug uptake,[1],Active
same,Drug uptake,[2],Active
same,Activity,[3],43%
CC1=C(I)C(C)=[N+]2C1=C(c1ccc(C(=O)ON3C(=O)CCC3=O)cc1)c1c(C)cc(C)n1[B-]2(F)F,Activity,[4],0.11
CN(C)c1ccc2cc3ccc(N(C)C)cc3[n+](CCCCCNC(=O)c3ccc(I)cc3)c2c1,Activity,[5],Dose-Dependent Effect
O=C(O)c1c(Cl)c(Cl)c(Cl)c(Cl)c1-c1c2cc(I)c(=O)c(I)c-2oc2c(I)c(O)c(I)cc12,Activity,[6],0.76
CC1=C(I)C(C)=[N+]2C1=C(c1ccc(C(=O)NCCCCOc3ccc(-c4nc5ccc(-c6nc7ccc(N8CCN(C)CC8)cc7[nH]6)cc5[nH]4)cc3)cc1)c1c(C)c(I)c(C)n1[B-]2(F)F,Activity,[5],Dose-Dependent Effect
same,Activity,[7],inactive
same,Activity,[8],Active
same,Activity,[9],Dose-Dependent Effect
same,Activity,[10],Dose-Dependent Effect
same,IC50,[10],195 nM
same,Activity,[11],29%
same,Activity,[12],inactive
same,Activity,[13],0.04
same,Activity,[14],0.41
same,Activity,[15],533 nm
same,Activity,[16],552 nm
same,Activity,[17],20600 M⁻¹ cm⁻¹
CC1=C([125I])C(C)=[N+]2C1=C(c1ccc(C(=O)NCCCCOc3ccc(-c4nc5ccc(-c6nc7ccc(N8CCN(C)CC8)cc7[nH]6)cc5[nH]4)cc3)cc1)c1c(C)cc(C)n1[B-]2(F)F,Drug uptake,[1],Active
same,Drug uptake,[2],Active
same,Activity,[3],60%
CN(C)c1ccc2cc3ccc(N(C)C)cc3[n+](CCCCCNC(=O)c3ccc([125I])cc3)c2c1,Activity,[3],64%
CC1=C(I)C(C)=[N+]2C1=C(c1ccc(C(=O)NCCCCOc3ccc(-c4nc5ccc(-c6nc7ccc(N8CCN(C)CC8)cc7[nH]6)cc5[nH]4)cc3)cc1)c1c(C)cc(C)n1[B-]2(F)F,Activity,[5],Dose-Dependent Effect
same,Activity,[8],Active
same,Activity,[9],Dose-Dependent Effect
same,Activity,[10],Dose-Dependent Effect
same,IC50,[10],702 nM
same,Activity,[11],50%
same,Activity,[12],inactive
same,Activity,[13],0.06
same,Activity,[14],0.32
same,Activity,[18],517 nm
same,Activity,[19],532 nm
same,Activity,[20],22000 M⁻¹ cm⁻¹
